Experimental data published in patent US20230312577A1, “DUAL KINASE-BROMODOMAIN INHIBITORS” (MONASH UNIVERSITY, priority 2020, published 2023).

What follows are compounds tested on OPM2 cells (assay: Cell proliferation assay (ViaLight, cellular ATP)). Details: Homo sapiens, OPM-2, 120 h, 5 days, 5 μM to 1 nM.
Type: cell-based
Description: OPM2 cells (1×10^3) were plated in a 96 well plate. Test compounds were added to cells at final concentrations ranging from 5 μM to 1 nM. They were incubated for 5 days before they were analysed using ViaLight luminescence-based proliferation assays which detect cellular ATP, as per the manufacturer's instructions. All samples were prepared in technical triplicates. Data analysis was performed in GraphPad Prism version 7.00 for Mac OS X, (GraphPad Software, San Diego California USA) in order to calculate the GI50.

Structure (SMILES) | GI50 [µM]
CC(=O)N1c2ccc(-c3ccc(NC(=O)CNC(=O)c4nc5c(N6CCOCC6)nc(-c6cnc(N)nc6)cn5c4C)cc3)cc2CC[C@@H]1C [Cpd 048, (S)-N-(2-((4-(1-acetyl-2-methyl-1,2,3,4-tetrahydroquinolin-6-yl)phenyl)amino)-2-oxoethyl)-6-(2-aminopyrimidin-5-yl)-3-methyl-8-morpholinoimidazo[1,2-a]pyrazine-2-carboxamide] | ≤ 0.1
CC(=O)N1c2ccc(-c3cccc(NC(=O)CNC(=O)c4sc5c(N6CCOCC6)nc(-c6cnc(N)nc6)nc5c4C)c3)cc2CC[C@@H]1C [Cpd 049, (S)-N-(2-((3-(1-acetyl-2-methyl-1,2,3,4-tetrahydroquinolin-6-yl)phenyl)amino)-2-oxoethyl)-2-(2-aminopyrimidin-5-yl)-7-methyl-4-morpholinothieno[3,2-d]pyrimidine-6-carboxamide] | 0.1 to 0.5
CC(=O)N1c2ccc(-c3cccc(CCNC(=O)c4nc5c(N6CCOCC6)nc(-c6cnc(N)nc6)cn5c4C)c3)cc2CC[C@@H]1C [Cpd 050, (S)-N-(3-(1-acetyl-2-methyl-1,2,3,4-tetrahydroquinolin-6-yl)phenethyl)-6-(2-aminopyrimidin-5-yl)-3-methyl-8-morpholinoimidazo[1,2-a]pyrazine-2-carboxamide] | 0.1 to 0.5
CC(=O)N1c2ccc(-c3cccc(CCNC(=O)c4sc5c(N6CCOCC6)nc(-c6cnc(N)nc6)nc5c4C)c3)cc2CC[C@@H]1C [Cpd 051, (S)-N-(3-(1-acetyl-2-methyl-1,2,3,4-tetrahydroquinolin-6-yl)phenethyl)-2-(2-aminopyrimidin-5-yl)-7-methyl-4-morpholinothieno[3,2-d]pyrimidine-6-carboxamide] | 0.1 to 0.5
CC(=O)N1c2ccc(-c3cnn(C4CCN(Cc5sc6c(N7CCOCC7)nc(-c7cnc(N)nc7)nc6c5C)CC4)c3)cc2CC[C@@H]1C [Cpd 052, (S)-1-(6-(1-(1-((2-(2-aminopyrimidin-5-yl)-7-methyl-4-morpholinothieno[3,2-d]pyrimidin-6-yl)methyl)piperidin-4-yl)-1H-pyrazol-4-yl)-2-methyl-3,4-dihydroquinolin-1(2H)-yl)ethan-1-one] | > 0.5
CC(=O)N1c2ccc(-c3cnn(C4CCN(C(=O)c5sc6c(N7CCOCC7)nc(-c7cnc(N)nc7)nc6c5C)CC4)c3)cc2CC[C@@H]1C [Cpd 053, (S)-1-(6-(1-(1-(2-(2-aminopyrimidin-5-yl)-7-methyl-4-morpholinothieno[3,2-d]pyrimidine-6-carbonyl)piperidin-4-yl)-1H-pyrazol-4-yl)-2-methyl-3,4-dihydroquinolin-1(2H)-yl)ethan-1-one] | ≤ 0.1
CC(=O)N1c2ccc(-c3ccc(CNCc4sc5c(N6CCOCC6)nc(-c6cnc(N)nc6)nc5c4C)cc3)cc2CC[C@@H]1C [Cpd 055, (S)-1-(6-(4-((((2-(2-aminopyrimidin-5-yl)-7-methyl-4-morpholinothieno[3,2-d]pyrimidin-6-yl)methyl)amino)methyl)phenyl)-2-methyl-3,4-dihydroquinolin-1(2H)-yl)ethan-1-one] | > 0.5
CC(=O)N(Cc1ccc(-c2ccc3c(c2)CC[C@H](C)N3C(C)=O)cc1)Cc1sc2c(N3CCOCC3)nc(-c3cnc(N)nc3)nc2c1C [Cpd 056, (S)-N-(4-(1-Acetyl-2-methyl-1,2,3,4-tetrahydroquinolin-6-yl)benzyl)-N-((2-(2-aminopy-rimidin-5-yl)-7-methyl-4-morpholinothieno[3,2-d]pyrimidin-6-yl)methyl)acetamide] | 0.1 to 0.5
CC(=O)N1c2ccc(-c3ccc(CNC(=O)c4cn5cc(-c6cnc(N)cc6C(F)(F)F)nc(N6CCOCC6)c5n4)cc3)cc2CC[C@@H]1C [Cpd 057, (S)-N-(4-(1-Acetyl-2-methyl-1,2,3,4-tetrahydroquinolin-6-yl)benzyl)-6-(6-amino-4-(tri-fluoromethyl)pyridin-3-yl)-8-morpholinoimidazo[1,2-a]pyrazine-2-carboxamide] | > 0.5
COc1ccc(-c2cn3cc(C(=O)NCc4ccc(-c5ccc6c(c5)CC[C@H](C)N6C(C)=O)cc4)nc3c(N3CCOCC3)n2)cn1 [Cpd 058, (S)-N-(4-(1-Acetyl-2-methyl-1,2,3,4-tetrahydroquinolin-6-yl)benzyl)-6-(6-methoxypyridin-3-yl)-8-morpholinoimidazo[1,2-a]pyrazine-2-carboxamide] | 0.1 to 0.5
CC(=O)N1c2ccc(-c3ccc(CNC(=O)c4cn5cc(-c6cccc7[nH]ncc67)nc(N6CCOCC6)c5n4)cc3)cc2CC[C@@H]1C [Cpd 059, (S)-N-(4-(1-Acetyl-2-methyl-1,2,3,4-tetrahydroquinolin-6-yl)benzyl)-6-(1H-indazol-4-yl)-8-morpholinoimidazo[1,2-a]pyrazine-2-carboxamide] | ≤ 0.1
CC(=O)N1c2ccc(-c3ccc(CNC(=O)c4cn5cc(-n6c(C(F)F)nc7ccccc76)nc(N6CCOCC6)c5n4)cc3)cc2CC[C@@H]1C [Cpd 060, (S)-N-(4-(1-Acetyl-2-methyl-1,2,3,4-tetrahydroquinolin-6-yl)benzyl)-6-(2-(difluoromethyl)-1H-benzo[d]imidazol-1-yl)-8-morpholinoimidazo[1,2-a]pyrazine-2-carboxamide] | ≤ 0.1
CC(=O)N1c2ccc(-c3ccc(C(C)(C)NC(=O)c4cn5cc(-c6cnc(N)nc6)nc(N6CCOCC6)c5n4)cc3)cc2CC[C@@H]1C [Cpd 061, (S)-N-(2-(4-(1-Acetyl-2-methyl-1,2,3,4-tetrahydroquinolin-6-yl)phenyl)propan-2-yl)-6-(2-aminopyrimidin-5-yl)-8-morpholinoimidazo[1,2-a]pyrazine-2-carboxamide] | 0.1 to 0.5
CC(=O)N1c2ccc(-c3ccc([C@H](C)NC(=O)c4cn5cc(-c6cnc(N)nc6)nc(N6CCOCC6)c5n4)cc3)cc2CC[C@@H]1C [Cpd 062, N-((S)-1-(4-((S)-1-Acetyl-2-methyl-1,2,3,4-tetrahydroquinolin-6-yl)phenyl)ethyl)-6-(2-aminopyrimidin-5-yl)-8-morpholinoimidazo[1,2-a]pyrazine-2-carboxamide] | ≤ 0.1
CC(=O)N1c2ccc(-c3ccc([C@@H](C)NC(=O)c4cn5cc(-c6cnc(N)nc6)nc(N6CCOCC6)c5n4)cc3)cc2CC[C@@H]1C [Cpd 063, N-((R)-1-(4-((S)-1-Acetyl-2-methyl-1,2,3,4-tetrahydroquinolin-6-yl)phenyl)ethyl)-6-(2-aminopyrimidin-5-yl)-8-morpholinoimidazo[1,2-a]pyrazine-2-carboxamide] | ≤ 0.1
CC(=O)N1c2ccc(-c3ccc(CNC(=O)c4cn5cc(-c6cnc(N)nc6)nc(N6CCCCC6)c5n4)cc3)cc2CC[C@@H]1C [Cpd 064, (S)-N-(4-(1-Acetyl-2-methyl-1,2,3,4-tetrahydroquinolin-6-yl)benzyl)-6-(2-aminopyrimidin-5-yl)-8-(piperidin-1-yl)imidazo[1,2-a]pyrazine-2-carboxamide] | 0.1 to 0.5
CC(=O)N1c2ccc(-c3ccc(CNC(=O)c4cc5c(N6CCOCC6)nc(-c6cnc(N)nc6)cn5n4)cc3)cc2CC[C@@H]1C [Cpd 067, (S)-N-(4-(1-Acetyl-2-methyl-1,2,3,4-tetrahydroquinolin-6-yl)benzyl)-6-(2-aminopyrimidin-5-yl)-4-morpholinopyrazolo[1,5-a]pyrazine-2-carboxamide] | ≤ 0.1
CC(=O)N1c2ccc(-c3ccc(CNC(=O)c4cc5c(N6CCOCC6)nc(-c6cnc(N)nc6)c(Cl)n5n4)cc3)cc2CC[C@@H]1C [Cpd 068, (S)-N-(4-(1-Acetyl-2-methyl-1,2,3,4-tetrahydroquinolin-6-yl)benzyl)-6-(2-aminopyrimidin-5-yl)-7-chloro-4-morpholinopyrazolo[1,5-a]pyrazine-2-carboxamide] | ≤ 0.1
CC(=O)N1c2ccc(-c3ccc(CNC(=O)c4cc5c(N6CCOCC6)nc(-c6cnc(N)nc6)cn5c4)cc3)cc2CC[C@@H]1C [Cpd 069, (S)-N-(4-(1-Acetyl-2-methyl-1,2,3,4-tetrahydroquinolin-6-yl)benzyl)-3-(2-aminopyrimidin-5-yl)-1-morpholinopyrrolo[1,2-a]pyrazine-7-carboxamide] | ≤ 0.1
CC(=O)N1c2ccc(-c3ccc(CNC(=O)c4cn5c(N6CCOCC6)nc(-c6cnc(N)nc6)cc5n4)cc3)cc2CC[C@@H]1C [Cpd 070, (S)-N-(4-(1-Acetyl-2-methyl-1,2,3,4-tetrahydroquinolin-6-yl)benzyl)-7-(2-aminopyrimidin-5-yl)-5-morpholinoimidazo[1,2-c]pyrimidine-2-carboxamide] | ≤ 0.1
CC(=O)N1c2ccc(-c3ccc(CNC(=O)c4nc5c(N6CCOCC6)nc(-c6cnc(N)nc6)nc5n4C)cc3)cc2CC[C@@H]1C [Cpd 071, (S)-N-(4-(1-Acetyl-2-methyl-1,2,3,4-tetrahydroquinolin-6-yl)benzyl)-2-(2-aminopyrimidin-5-yl)-9-methyl-6-morpholino-9H-purine-8-carboxamide] | ≤ 0.1
CC(=O)N1c2ccc(-c3ccc(CNC(=O)c4nc5c(N6CCOCC6)nc(-c6cnc(N)nc6)cn5n4)cc3)cc2CC[C@@H]1C [Cpd 072, (S)-N-(4-(1-Acetyl-2-methyl-1,2,3,4-tetrahydroquinolin-6-yl)benzyl)-6-(2-aminopyrimidin-5-yl)-8-morpholino-[1,2,4]triazolo[1,5-a]pyrazine-2-carboxamide] | ≤ 0.1
CC(=O)N1c2ccc(-c3ccc(CNC(=O)c4nc5c(N6CCOCC6)cc(-c6cnc(N)nc6)cn5n4)cc3)cc2CC[C@@H]1C [Cpd 073, (S)-N-(4-(1-Acetyl-2-methyl-1,2,3,4-tetrahydroquinolin-6-yl)benzyl)-6-(2-aminopyrimidin-5-yl)-8-morpholino-[1,2,4]triazolo[1,5-a]pyridine-2-carboxamide] | ≤ 0.1
CC(=O)N1c2ccc(-c3ccc(CNC(=O)c4cn5cc(-c6cnc(N)nc6)cc(N6CCOCC6)c5n4)cc3)cc2CC[C@@H]1C [Cpd 074, (S)-N-(4-(1-Acetyl-2-methyl-1,2,3,4-tetrahydroquinolin-6-yl)benzyl)-6-(2-aminopyrimidin-5-yl)-8-morpholinoimidazo[1,2-a]pyridine-2-carboxamide] | ≤ 0.1
